Entries after “also recorded” stand apart in the source; their conditions may differ.
How the values were obtained:
HCN cells [1] = assay: in vitro neuronal differentiation of HCN cells (morphology, Tuj1 staining); assay type: cell-based, rat; conditions: for morphologic neuronal differentiation of NPCs: 25 μM AMPA or 50 μM Muscimol; for effect of inhibitor on Isx-9 neurogenic activity (Tuj1+ cells): Isx-9-treated HCN cells, KN93 2 d cultures
neuroD-luciferase = neuroD-luciferase reporter gene assay in HCN cells; assay type: cell-based, rat; conditions: for effect of inhibitor on neuroD-luc activity of Isx/Isx-9-treated cells: inhibitor added to Isx/Isx-9-treated HCNs/NPCs, 24 h
[2] = system: MEF2 reporter gene (3XMRE-luc); assay: MEF2 reporter gene (3XMRE-luc) assay in HCN cells; assay type: cell-based, rat; conditions: Isx-9-treated HCN cells; KN93, KN92 5 μM (10, 5, 1 μM), G66976 200 nM
HDAC5 = assay: protein blotting of phospho-HDAC5, HDAC4 and phospho-CaMKII in HCN cells; assay type: cell-based, rat; conditions: Isx/Isx-9-treated NSCs; KN93, KN92 5 μM
pHDAC5:14-3-3-luciferase = assay: mammalian 2-hybrid luciferase assay (pHDAC5:14-3-3-luciferase); assay type: cell-based, rat; conditions: Isx-9-treated NSCs
Method: FIGS. 5A-F—CaMK is the major HDAC kinase activated by Isx small-molecules in NSCs. […] The doses of KN93 and KN92 in reporter assays were 10, 5, and 1 μM. (FIG. 5D) A schematic diagram of a mammalian 2-hybrid luciferase assay system (pHDAC5:14-3-3-luciferase) which is dependent on the interaction of HDAC5 and 14-3-3. […] (FIG. 5E) Shown are representative images and quantification of the percentage of Isx-9-treated HCNs showing GFP-HDAC5 localization in nuclear (Nuc), cytoplasmic (Cyto), or both compartments (Nuc/Cyto) with and without KN93 or KN92 treatment after 24 h. […] Scale bar: 5 μm. Values in […] represent the average of 12 replicates±SD. Values in FIG. 5E represent the average of 2 replicates+SD of one representative experiment from two independent experiments.
Reporter gene assay. All reporter gene assays were done in 96-well format, and each data point represents the average of 12 replicates. Reporter genes included neuroD-, gIuR2-, MREx3-, NR1-, and pHDAC5:14-3-3-luciferase and each well contained ˜25,000 cells in a volume of 100 μl. 5×10^6 HCN cells were transfected with 5 μg DNA by electroporation (Amaxa) and plated in growth media overnight. In the case of pHDAC5:14-3-3-luciferase, cells were transfected with 2 μg of each plasmid. Compounds were added the day following transfection and luciferase assays were performed 24 or 48 h later. […]

HCN cells [3] = assay: RT-PCR and protein blotting of gene expression in HCN cells; assay type: cell-based, rat; conditions: NPCs, 50 μM Muscimol
Nkx2.5-luc = Nkx2.5-luc reporter in P19CL6 clone #5-1; assay type: cell-based, mouse
Text: Assay development. An Nkx2.5-luc transgene was constructed by replacing the two coding sequence exons of NRx2.5 locus from the ATG with the coding sequence of luc (from pGL3-basic vector, Promega) in an ˜180,000 base pair-long BAC (FIG. 11). The recombinant BAC DNA was introduced into pluripotent P19CL6 cells using Lipofectamine-2000 (Invitrogen) and neo^R clones were selected, and tested for chemically inducible luc activity with sodium butyrate (NaB). #5-1, a clonal stem cell line with low basal and at least a 4-fold higher NaB-inducible luciferase activity compared to vehicle control (DMSO), yielding a Z′ value of 0.7 in 384-well plate format (Zhang et al. 1999), was chosen for the HTS.

HCN cells [4] = assay: cell death in HCN cells (propidium iodide/Hoescht live staining); assay type: cell-based, rat; conditions: 2 μM Q-VD-Oph
Method: Neural stem cell culture, in vitro differentiation, and CaMK inhibitor studies. The hippocampal neural stem/progenitor (NSC) line used in this study (HCN cells) were originally isolated from adult (8-10 wks old) female Fisher 344 rats and have been characterized previously (Gage et al., 1995; Palmer et al., 1997). HCN cells were cultured in DMEM:F12 (Omega Scientific) with N2 supplement (Invitrogen) and basic fibroblast growth factor (20 ng/ml FGF-2) (PeproTech). The mouse whole brain neural stem/progenitors (MWB) were derived from adult (8-10 wks old) C57BL/6 mice that have been characterized previously (Ray and Gage, 2006). […]
Immunostaining, GFP-HDAC5 visualization, and fluorescence microscopy. […] Quantification of cell phenotype was done by sampling 6-8 random fields in each well and counting a total of 250-500 cells at 20× magnification. […] For quantification of live/dead cells, images were taken of cultures live-stained with propidium iodide and Hoescht 33342 at 20× magnification, and 500-1000 cells were counted by sampling 6-8 random fields in each well. For quantification of HDAC5 subcellular localization, 20× images were taken of live cultures, and 40-50 GFP+ cells were counted by sampling 3 random fields in each well. […]

## Cc1onc(O)c1CC(N)C(=O)O (stereo not drawn) [AMPA, α-amino-3-hydroxy-5-methyl isoxazole-4-proprionic acid]
HCN cells [1]
  morphologic neuronal differentiation of NPCs: failed to induce morphologic neuronal differentiation

## Cn1c2ccccc2c2c3c(c4c5ccccc5n(CCC#N)c4c21)CNC3=O [Isx G66976]
neuroD-luciferase
  effect of inhibitor on neuroD-luc activity of Isx/Isx-9-treated cells: did not significantly affect Isx-induced reporter gene expression
[2]
  effect of kinase inhibitor on Isx-9-mediated MEF2 reporter activation: did not significantly affect Isx-induced reporter gene expression; also recorded: completely ineffective
HDAC5
  effect of inhibitor on phospho-HDAC5 and phospho-CaMKII levels: did not

## COc1ccc(S(=O)(=O)Nc2ccccc2CN(C)C/C=C/c2ccc(Cl)cc2)cc1 [KN92]
[2]
  effect of kinase inhibitor on Isx-9-mediated MEF2 reporter activation: had no effect
pHDAC5:14-3-3-luciferase
  HDAC5 kinase activity (pHDAC5:14-3-3-luciferase): not
HDAC5
  effect of inhibitor on phospho-HDAC5 and phospho-CaMKII levels: had no effect

## COc1ccc(S(=O)(=O)N(CCO)c2ccccc2CN(C)C/C=C/c2ccc(Cl)cc2)cc1 [KN93]
neuroD-luciferase
  effect of inhibitor on neuroD-luc activity of Isx/Isx-9-treated cells: extremely effective in blocking Isx-mediated reporter gene expression
[2]
  effect of kinase inhibitor on Isx-9-mediated MEF2 reporter activation: extremely effective in blocking Isx-mediated reporter gene expression; also recorded: blocked Isx-9-mediated MEF2 reporter activation
pHDAC5:14-3-3-luciferase
  HDAC5 kinase activity (pHDAC5:14-3-3-luciferase): completely blocked HDAC5 kinase activity
HCN cells [1]
  effect of inhibitor on Isx-9 neurogenic activity (Tuj1+ cells): resulted in an inhibition of Isx-9 neurogenic activity
HDAC5
  effect of inhibitor on phospho-HDAC5 and phospho-CaMKII levels: blocked HDAC5 phosphorylation; also recorded: decreased phospho-HDAC5 and active phospho-CaMKII levels

## C[C@]12N[C@H](Cc3ccccc31)c1ccccc12 [MK801]
neuroD-luciferase
  effect of inhibitor on neuroD-luc activity of Isx/Isx-9-treated cells: small but significant decrease; also recorded: attenuated neuroD-luc activity

## NCc1cc(O)no1 [Muscimol, 5-aminomethyl-3-hydroxy-isoxazole]
neuroD-luciferase; NPCs, 15 μM Muscimol
  neuroD-luciferase activity: an increase in neuroD-luciferase activity
HCN cells [1]
  morphologic neuronal differentiation of NPCs: failed to induce morphologic neuronal differentiation
HCN cells [3]
  GluR2/3 protein expression: increase

## CCCC(=O)[O-].[Na+] [NaB, sodium butyrate]
Nkx2.5-luc
  inducible luciferase activity compared to vehicle control (DMSO): ≥ 4 fold

## CC(C)[C@H](NC(=O)c1ccc2ccccc2n1)C(=O)N[C@@H](CC(=O)O)C(=O)COc1c(F)cccc1F [Q-VD-Oph]
HCN cells [1]
  effect of inhibitor on Isx-9 neurogenic activity (Tuj1+ cells): does not further increase Tuj1+ cells
HCN cells [4]
  cell death in Isx-9-treated HCNs: blocks cell death

— US8193225B2, “Isoxazole amides, derivatives and methods of chemical induction of neurogenesis” (priority 2006, dated 2012)
